In US20230382925A1, “MODULATORS OF CYSTIC FIBROSIS TRANSMEMBRANE CONDUCTANCE REGULATOR” (VERTEX PHARMACEUTICALS INCORPORATED, priority 2020, published 2023):
pEC50: −log10 of the molar value. Like-named read-outs stand apart in the source and are kept apart here.

Biological target: CFTR (Homo sapiens, UniProt P13569)
Test: Membrane Potential Dye, Enteroid Assay B
Assay type: cell-based
Summary of the method: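 Human intestinal enteroid cells exposed to compound 18-24 h at 37 °C, then loaded with methyl oxonol membrane-potential dye plus CaCC blockers. Chloride transport triggered in chloride-free buffer with 10 μM forskolin, 100 μM IBMX, 300 nM Compound III; fluorescence read 15 min, expressed as % of triple-corrector/potentiator combination control.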

[1] = Table 10, read-out: Ent. B EC50

Chain of CFTR (P13569 with tags, fused parts or gaps DEL508-508): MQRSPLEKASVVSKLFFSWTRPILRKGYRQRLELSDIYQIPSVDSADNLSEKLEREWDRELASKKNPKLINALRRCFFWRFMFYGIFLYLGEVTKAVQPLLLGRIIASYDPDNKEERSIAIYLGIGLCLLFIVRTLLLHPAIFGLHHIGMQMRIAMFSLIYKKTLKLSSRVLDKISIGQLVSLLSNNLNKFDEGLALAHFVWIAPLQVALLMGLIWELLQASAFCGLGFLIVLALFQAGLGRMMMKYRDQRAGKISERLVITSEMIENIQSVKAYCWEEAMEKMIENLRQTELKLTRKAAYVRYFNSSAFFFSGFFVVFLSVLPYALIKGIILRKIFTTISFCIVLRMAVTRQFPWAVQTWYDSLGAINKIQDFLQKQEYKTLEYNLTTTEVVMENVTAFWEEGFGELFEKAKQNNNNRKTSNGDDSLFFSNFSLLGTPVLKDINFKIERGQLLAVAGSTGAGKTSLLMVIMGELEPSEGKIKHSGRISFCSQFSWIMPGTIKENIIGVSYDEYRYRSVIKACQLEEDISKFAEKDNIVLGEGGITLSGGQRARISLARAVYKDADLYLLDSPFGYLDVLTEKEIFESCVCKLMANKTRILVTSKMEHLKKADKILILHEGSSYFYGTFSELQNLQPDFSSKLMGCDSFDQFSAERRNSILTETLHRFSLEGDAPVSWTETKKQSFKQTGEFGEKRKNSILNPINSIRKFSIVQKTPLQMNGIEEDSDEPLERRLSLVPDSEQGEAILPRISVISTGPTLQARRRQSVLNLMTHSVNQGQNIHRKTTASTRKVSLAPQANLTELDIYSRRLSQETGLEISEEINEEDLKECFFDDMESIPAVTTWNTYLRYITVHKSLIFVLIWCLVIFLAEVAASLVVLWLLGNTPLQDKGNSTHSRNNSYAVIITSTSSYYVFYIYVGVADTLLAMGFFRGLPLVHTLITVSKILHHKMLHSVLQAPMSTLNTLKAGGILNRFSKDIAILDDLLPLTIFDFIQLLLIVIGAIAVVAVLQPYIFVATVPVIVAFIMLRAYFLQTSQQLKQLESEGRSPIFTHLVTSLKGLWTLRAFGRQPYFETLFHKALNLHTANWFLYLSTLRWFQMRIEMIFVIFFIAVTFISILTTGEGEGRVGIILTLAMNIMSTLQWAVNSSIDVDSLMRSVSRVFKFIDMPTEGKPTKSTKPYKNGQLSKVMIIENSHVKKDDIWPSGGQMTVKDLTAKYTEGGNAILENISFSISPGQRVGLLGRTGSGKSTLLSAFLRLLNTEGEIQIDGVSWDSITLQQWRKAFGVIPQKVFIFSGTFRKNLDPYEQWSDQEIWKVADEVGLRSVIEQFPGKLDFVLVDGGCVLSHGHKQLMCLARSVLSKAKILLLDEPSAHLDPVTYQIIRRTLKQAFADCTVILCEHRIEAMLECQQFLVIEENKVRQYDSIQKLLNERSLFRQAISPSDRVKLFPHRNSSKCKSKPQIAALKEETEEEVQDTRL

Row | SMILES | Ent. B Max Activity (%) (Table 9) | pEC50 (Table 9, read-out: Ent. B EC50) | Ent. B Max Activity (%) (Table 10) | pEC50 [1] | also measured
1 | Cc1cccc(C)c1-c1cc2nc(n1)NS(=O)(=O)c1cccc(c1)C(=O)N([C@H]1C[C@@]3(C[C@H](NC(=O)C(C)C)C3)C1)[C@H](CC1(C(F)(F)F)CC1)CO2 (stereo partly drawn) [Compound 247] | – | – | +++ (+++ is >60%) | > 6.00 | –
2 | CC(C)C[C@@H]1COc2cc(-c3c(F)cccc3C(F)(F)F)nc(n2)NS(=O)(=O)c2cccc(c2)C(=O)N1C1CC2(CC2)C1 [Compound 202] | – | – | ++ (++ is 30-60%) | > 6.00 | –
3 | Cc1cccc(C)c1-c1cc2nc(n1)NS(=O)(=O)c1cccc(c1)C(=O)N(C1CC3(CCN3C(=O)CO)C1)[C@H](CC(C)(C)C)CO2 (stereo partly drawn) [Compound 146, (11R)-6-(2,6-Dimethylphenyl)-11-(2,2-dimethylpropyl)-12-[1-(2-hydroxyacetyl)-1-azaspiro[3.3]heptan-6-yl]-2,2-dioxo-9-oxa-2λ^6-thia-3,5,12,19-tetrazatricyclo[12.3.1.14,8]nonadeca-1(18),4(19),5,7,14,16-hexaen-13-one] | – | – | +++ (+++ is >60%) | > 6.00 | –
4 | COCCN1CC2(CC(N3C(=O)c4cccc(c4)S(=O)(=O)Nc4nc(cc(-c5c(C)cccc5C)n4)OC[C@H]3CC(C)C)C2)C1 [Compound 104, (11R)-6-(2,6-Dimethylphenyl)-11-isobutyl-12-[2-(2-methoxyethyl)-2-azaspiro[3.3]heptan-6-yl]-2,2-dioxo-9-oxa-2λ^6-thia-3,5,12,19-tetrazatricyclo[12.3.1.14,8]nonadeca-1(18),4(19),5,7,14,16-hexaen-13-one] | +++ (+++ is >60%) | – | – | – | –
5 | COC1CC(N2C(=O)c3cccc(c3)S(=O)(=O)Nc3nc(cc(-c4c(C)cccc4C)n3)OC[C@H]2CC2(C(F)(F)F)CC2)C1 (stereo in doubt) [Compound 465] | – | – | – | – | Ent. B Max Activity (%): +++ (+++ is >60%); pEC50 (read-out: Ent. B EC50): > 6.00
6 | Cc1cccc(C)c1-c1cc2nc(n1)NS(=O)(=O)c1cccc(c1)C(=O)N(C1CC3(C1)CC(O)(CC(C)C)C3)[C@H](CC(C)(C)C)CO2 (stereo in doubt) [Compound 405] | – | – | +++ (+++ is >60%) | > 6.00 | –
7 | Cc1cccc(C)c1-c1cc2nc(n1)NS(=O)(=O)c1cccc(c1)C(=O)N(C1CC3(COC(=O)N3C)C1)[C@H](CC(C)(C)C)CO2 (single isomer, unassigned) [Compound 177] | – | – | ++ (++ is 30-60%) | > 6.00 | –
8 | Cc1cccc(C)c1-c1cc2nc(n1)NS(=O)(=O)c1cccc(c1)C(=O)N([C@H]1C[C@]3(C[C@@H](N)C3)C1)[C@H](CC1(C(F)(F)F)CC1)CO2 (stereo partly drawn) [Compound 80, (R)-6-((2S,4s,6S)-6-Aminospiro[3.3]heptan-2-yl)-1^6-(2,6-dimethylphenyl)-7-((1-(trifluoromethyl)cyclopropyl)methyl)-9-oxa-3-thia-2,6-diaza-1(2,4)-pyrimidina-4(1,3)-benzenacyclononaphan-5-one 3,3-dioxide] | +++ (+++ is >60%) | > 6.00 | – | – | –
9 | CN[C@H]1CC2(C1)C[C@H](N1C(=O)c3cccc(c3)S(=O)(=O)Nc3nc(cc(-c4c(C)cccc4C)n3)OC[C@H]1CC(C)C)C2 (stereo partly drawn) [Compound 281] | +++ (+++ is >60%) | > 6.00 | – | – | –
10 | COCCCN1CCC2(CC1)CC(N1C(=O)c3cccc(c3)S(=O)(=O)Nc3nc(cc(-c4c(C)cccc4C)n3)OC[C@H]1CC(C)(C)C(F)(F)F)C2 [Compound 188, (11R)-6-(2,6-dimethylphenyl)-12-[7-(3-methoxypropyl)-7-azaspiro[3.5]nonan-2-yl]-11-(3,3,3-trifluoro-2,2-dimethylpropyl)-9-oxa-2λ^6-thia-3,5,12,19-tetraazatricyclo[12.3.1.14,8]nonadeca-1(17),4(19),5,7,14(18),15-hexaene-2,2,13-trione] | +++ (+++ is >60%) | > 6.00 | – | – | –
11 | [H][C@]1(N2C(=O)c3cccc(c3)S(=O)(=O)Nc3nc(cc(-c4c(C)cccc4C)n3)OC[C@H]2CC2(C(F)(F)F)CC2)C[C@@]2(C[C@H](N(C)C)C2)C1 (stereo partly drawn) [Compound 298] | – | – | – | – | Ent. B Max Activity (%): +++ (+++ is >60%); pEC50 (read-out: Ent. B EC50): > 6.00
12 | [H][C@]1(N2C(=O)c3cccc(c3)S(=O)(=O)Nc3nc(cc(-c4c(C)cccc4C)n3)OC[C@H]2CC(C)C)C[C@@]2(C[C@H](C(C)(C)O)C2)C1 (stereo in doubt) [Compound 413] | – | – | +++ (+++ is >60%) | > 6.00 | –
13 | Cc1cccc(C)c1-c1cc2nc(n1)NS(=O)(=O)c1cccc(c1)C(=O)N([C@H]1C[C@@H](N3CC(N(C)C)C3)C1)[C@H](CC(C)C)CO2 [Compound 66, (11R)-12-[3-[3-(Dimethylamino)azetidin-1-yl]cyclobutyl]-6-(2,6-dimethylphenyl)-11-isobutyl-2,2-dioxo-9-oxa-2λ^6-thia-3,5,12,19-tetrazatricyclo[12.3.1.14,8]nonadeca-1(18),4(19),5,7,14,16-hexaen-13-one] | +++ (+++ is >60%) | > 6.00 | – | – | –
14 | Cc1cccc(C)c1-c1cc2nc(n1)NS(=O)(=O)c1cccc(c1)C(=O)N(C1CC3(CCN(C(=O)[C@@H](C)O)CC3)C1)[C@H](CC(C)C)CO2 [Compound 455] | +++ (+++ is >60%) | > 6.00 | – | – | –
15 | CC(=O)N[C@H]1C[C@@]2(C1)C[C@H](N1C(=O)c3cccc(c3)S(=O)(=O)Nc3nc(cc(-c4c(C)cccc4C)n3)OC[C@H]1CC1(C(F)(F)F)CC1)C2 (stereo partly drawn) [Compound 85, N-((2R,4r,6R)-6-((R)-1^6-(2,6-Dimethylphenyl)-3,3-dioxido-5-oxo-7-((1-(trifluoromethyl)cyclopropyl)methyl)-9-oxa-3-thia-2,6-diaza-1(2,4)-pyrimidina-4(1,3)-benzenacyclononaphane-6-yl)spiro[3.3]heptan-2-yl)acetamide] | +++ (+++ is >60%) | > 6.00 | – | – | –
16 | CCOCCN1CCC2(CC1)CC(N1C(=O)c3cccc(c3)S(=O)(=O)Nc3nc(cc(-c4c(C)cccc4C)n3)OC[C@H]1CC(C)C)C2 [Compound 310] | – | – | – | – | Ent. B Max Activity (%): +++ (+++ is >60%); pEC50 (read-out: Ent. B EC50): > 6.00
17 | Cc1cccc(C)c1-c1cc2nc(n1)NS(=O)(=O)c1cccc(c1)C(=O)N(C1CC(N[C@H]3CC[C@@H](O)CC3)C1)[C@H](CC(C)C)CO2 (stereo partly drawn) [Compound 371] | +++ (+++ is >60%) | 5.52 to 6.00 | – | – | –
18 | Cc1cccc(C)c1-c1cc2nc(n1)NS(=O)(=O)c1cccc(c1)C(=O)N(c1cnn(C3CCN(Cc4ccccc4)CC3)c1)[C@H](CC(C)(C)C)CO2 [Compound 226] | – | – | + (+ is <300%) | > 6.00 | –

Second part, led by results:

Row | Ent. B Max Activity (%) (Table 9) | pEC50 (Table 9, read-out: Ent. B EC50) | Ent. B Max Activity (%) (Table 10) | pEC50 [1] | SMILES | also measured
19 | +++ (+++ is >60%) | > 6.00 | – | – | COC(=O)NC[C@H]1C[C@@H](N2C(=O)c3cccc(c3)S(=O)(=O)Nc3nc(cc(-c4c(C)cccc4C)n3)OC[C@H]2CC(C)C)C1 (stereo in doubt) [Compound 264] | –
20 | – | – | ++ (++ is 30-60%) | > 6.00 | Cc1cccc(C)c1-c1cc2nc(n1)NS(=O)(=O)c1cccc(c1)C(=O)N(C1CC(N)C1)[C@H](CC(C)(C)C)CO2 (single isomer, unassigned) [Compound 165] | –
21 | – | – | +++ (+++ is >60%) | > 6.00 | CCOC(=O)NC1CC2(C1)CC(N1C(=O)c3cccc(c3)S(=O)(=O)Nc3nc(cc(-c4c(C)cccc4C)n3)OC[C@H]1CC(C)(C)C)C2 (stereo partly drawn) [Compound 357] | –
22 | +++ (+++ is >60%) | > 6.00 | – | – | COC(=O)NCC1CC(N2C(=O)c3cccc(c3)S(=O)(=O)Nc3nc(cc(-c4c(C)cccc4C)n3)OC[C@H]2CC(C)C)C1 (stereo partly drawn) [Compound 263] | –
23 | +++ (+++ is >60%) | > 6.00 | – | – | Cc1cccc(C)c1-c1cc2nc(n1)NS(=O)(=O)c1cccc(c1)C(=O)N(C1CC(NC(=O)C(C)C)C1)[C@H](CC(C)(C)C)CO2 (single isomer, unassigned) [Compound 444] | –
24 | – | – | ++ (++ is 30-60%) | > 6.00 | Cc1cccc(C)c1-c1cc2nc(n1)NS(=O)(=O)c1cccc(c1)C(=O)N(C1CC(N(C)C)C1)[C@H](CC(C)(C)C)CO2 (stereo partly drawn) [Compound 254] | –
25 | +++ (+++ is >60%) | > 6.00 | – | – | Cc1cccc(C)c1-c1cc2nc(n1)NS(=O)(=O)c1cccc(c1)C(=O)N(C1CC3(CC(N(C)C)C3)C1)[C@H](CC(C)(C)C)CO2 (stereo partly drawn) [Compound 461] | –
26 | – | – | + (+ is <300%) | > 6.00 | Cc1cccc(C)c1-c1cc2nc(n1)NS(=O)(=O)c1cccc(c1)C(=O)N([C@H]1C[C@@H](N(CCO)CCO)C1)[C@H](CC(C)(C)C)CO2 (stereo in doubt) [Compound 252] | –
27 | – | – | +++ (+++ is >60%) | > 6.00 | Cc1cccc(C)c1-c1cc2nc(n1)NS(=O)(=O)c1cccc(c1)C(=O)N(C1CC3(CC(=O)C3)C1)[C@H](CC(C)(C)C)CO2 [Compound 352] | –
28 | – | – | +++ (+++ is >60%) | > 6.00 | Cc1cccc(C)c1-c1cc2nc(n1)NS(=O)(=O)c1cccc(c1)C(=O)N(C1CC3(CC(C(N)=O)C3)C1)[C@H](CC(C)(C)C)CO2 (stereo partly drawn) [Compound 232] | –
29 | – | – | +++ (+++ is >60%) | > 6.00 | CCC(O)(CC)[C@H]1CC2(C[C@H](N3C(=O)c4cccc(c4)S(=O)(=O)Nc4nc(cc(-c5c(C)cccc5C)n4)OC[C@H]3CC(C)(C)C)C2)C1 (stereo partly drawn) [Compound 409] | –
30 | – | – | ++ (++ is 30-60%) | > 6.00 | CCN(C(=O)OC)C1CC(N2C(=O)c3cccc(c3)S(=O)(=O)Nc3nc(cc(-c4c(C)cccc4C)n3)OC[C@H]2CC(C)(C)C)C1 (single isomer, unassigned) [Compound 238] | –
31 | – | – | ++ (++ is 30-60%) | > 6.00 | CCN(C(=O)OC)C1CC(N2C(=O)c3cccc(c3)S(=O)(=O)Nc3nc(cc(-c4c(C)cccc4C)n3)OC[C@H]2CC(C)(C)C)C1 (single isomer, unassigned) [Compound 237] | –
32 | – | – | +++ (+++ is >60%) | > 6.00 | CC(=O)N1CCC12CC(N1C(=O)c3cccc(c3)S(=O)(=O)Nc3nc(cc(-c4c(C)cccc4C)n3)OC[C@H]1CC(C)(C)C)C2 (stereo partly drawn) [Compound 207] | –
